Data as given in paper PMC8428694, “Structural characterization of the Plasmodium falciparum lactate transporter PfFNT alone and in complex with antimalarial compound MMV007839 reveals its inhibition mechanism” (PLoS Biology, 2021).

B1: Plasmodium falciparum formate–nitrite transporter (PfFNT) (natural protein, P. falciparum, UniProt O77389 1-309, looked up)
chain: MPPNNSKYVLDPVSIKSVCGGEESYIRCVEYGKKKAHYSNLNLLAKAILAGMFVGLCAHASGIAGGLFYYHKLREIVGASMSVFVYGFTFPIAFMCIICTGSDLFTGNTLAVTMALYEKKVKLLDYLRVMTISLFGNYVGAVSFAFFVSYLSGAFTNVHAVEKNHFFQFLNDIAEKKVHHTFVECVSLAVGCNIFVCLAVYFVLTLKDGAGYVFSVFFAVYAFAIAGYEHIIANIYTLNIALMVNTKITVYQAYIKNLLPTLLGNYIAGAIVLGLPLYFIYKEHYYNFERSKRDNNDAQMKSLSIELRN
notes: PfFNT, lactate transporter of P. falciparum, UniProt O77389, encoded by pf3D7_0316600; full-length protein from codon-optimized cDNA; residues 7 to 293 of each protomer were assigned to the density map; Homopentamer in the cryo-EM structures; also called P. falciparum lactate transporter; wild-type PfFNT

Legend:
[1] = target: T1, P. falciparum formate–nitrite transporter (PfFNT) (Plasmodium falciparum, UniProt O77389, T106A); assay: ITC with purified mutant protein; type: binding
T1 construct: gene PF3D7_0316600; PfFNT T106A mutant, purified as wild type (full-length, N-terminal Strep-tag)

[2] = target: T2, P. falciparum formate–nitrite transporter (PfFNT) (Plasmodium falciparum, UniProt O77389); assay: ITC with purified protein; cryo-EM structure of the complex at […] Å; type: binding
T2 construct: gene PF3D7_0316600; full-length PfFNT, N-terminal Strep-tag; residues 7 to 293 modelled (apo structure); homopentamer

[3] = target: the molecule itself; assay: cryo-EM structure; purified PfFNT in GDN detergent (25 mM Tris pH 8.0, 150 mM NaCl, 0.06% GDN), incubated with 250 mM sodium lactate before grid preparation (no lactate density: apo form); C5 symmetry; 2.3 Å

Row | Molecule | Kd [1] [nM] | Kd [2] [nM] | stoichiometry N [3]
1 | COc1ccc2c(c1)OC(O)(C(F)(F)C(F)(F)F)CC2=O (stereo not drawn) [MMV007839] | 80.8 | ~7.18 | 
2 | B1 |  |  | 5
